Experimental data from patent publication US20250090681A1, “NEODEGRADER CONJUGATES” (Orum Therapeutics, Inc., priority 2021, published 2025).

Target: T1, GSPT1 (Homo sapiens, UniProt P15170+Q96SW2)
T1 construct: Whole cell lysates were prepared from MV4-11 CD33-positive AML cells; endogenous in cells; host or cells: MV4-11 (CD33-positive AML cells)
Assay: GSPT1 degradation by western blot in MV4-11 cells
Assay type: cell-based
Details: FIG. 8
Description: GSPT1 was probed by commercially available rabbit-anti-GSPT1 antibody (Abcam) followed by anti-rabbit HRP conjugated secondary antibody (Cell Signaling Technology) and detected by chemiluminescent substrate (ThermoFisher). PVDF membrane was then stripped and re-probed with beta-Actin-HRP conjugated antibody (Cell Signaling Technology).

T1 sequence (P15170 whole entry): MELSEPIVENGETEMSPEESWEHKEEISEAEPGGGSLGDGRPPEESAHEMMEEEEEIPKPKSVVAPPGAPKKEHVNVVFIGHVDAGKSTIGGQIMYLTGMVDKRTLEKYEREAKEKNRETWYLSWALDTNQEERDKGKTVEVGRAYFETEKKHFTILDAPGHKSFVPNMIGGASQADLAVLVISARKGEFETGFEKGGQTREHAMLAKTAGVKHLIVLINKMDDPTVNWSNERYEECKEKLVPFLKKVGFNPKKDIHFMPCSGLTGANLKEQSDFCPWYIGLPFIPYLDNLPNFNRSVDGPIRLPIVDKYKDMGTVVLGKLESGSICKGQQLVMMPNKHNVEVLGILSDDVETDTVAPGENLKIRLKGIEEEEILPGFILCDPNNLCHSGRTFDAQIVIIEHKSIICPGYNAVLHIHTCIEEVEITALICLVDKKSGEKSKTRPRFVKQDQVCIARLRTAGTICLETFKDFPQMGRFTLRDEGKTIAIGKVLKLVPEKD
T1 sequence (Q96SW2 whole entry): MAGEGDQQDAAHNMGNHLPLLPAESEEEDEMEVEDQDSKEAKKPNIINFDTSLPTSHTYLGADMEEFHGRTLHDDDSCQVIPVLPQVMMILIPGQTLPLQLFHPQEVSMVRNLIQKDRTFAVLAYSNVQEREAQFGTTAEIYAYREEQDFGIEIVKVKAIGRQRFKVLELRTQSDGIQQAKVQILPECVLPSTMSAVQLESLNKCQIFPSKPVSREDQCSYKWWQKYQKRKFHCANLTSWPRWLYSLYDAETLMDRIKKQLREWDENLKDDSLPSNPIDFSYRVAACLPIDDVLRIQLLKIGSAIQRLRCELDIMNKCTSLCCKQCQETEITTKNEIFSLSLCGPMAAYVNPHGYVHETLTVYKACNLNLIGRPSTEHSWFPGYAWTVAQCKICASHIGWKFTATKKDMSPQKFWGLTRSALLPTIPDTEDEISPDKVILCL
T1 sequence (Q16531 whole entry partner): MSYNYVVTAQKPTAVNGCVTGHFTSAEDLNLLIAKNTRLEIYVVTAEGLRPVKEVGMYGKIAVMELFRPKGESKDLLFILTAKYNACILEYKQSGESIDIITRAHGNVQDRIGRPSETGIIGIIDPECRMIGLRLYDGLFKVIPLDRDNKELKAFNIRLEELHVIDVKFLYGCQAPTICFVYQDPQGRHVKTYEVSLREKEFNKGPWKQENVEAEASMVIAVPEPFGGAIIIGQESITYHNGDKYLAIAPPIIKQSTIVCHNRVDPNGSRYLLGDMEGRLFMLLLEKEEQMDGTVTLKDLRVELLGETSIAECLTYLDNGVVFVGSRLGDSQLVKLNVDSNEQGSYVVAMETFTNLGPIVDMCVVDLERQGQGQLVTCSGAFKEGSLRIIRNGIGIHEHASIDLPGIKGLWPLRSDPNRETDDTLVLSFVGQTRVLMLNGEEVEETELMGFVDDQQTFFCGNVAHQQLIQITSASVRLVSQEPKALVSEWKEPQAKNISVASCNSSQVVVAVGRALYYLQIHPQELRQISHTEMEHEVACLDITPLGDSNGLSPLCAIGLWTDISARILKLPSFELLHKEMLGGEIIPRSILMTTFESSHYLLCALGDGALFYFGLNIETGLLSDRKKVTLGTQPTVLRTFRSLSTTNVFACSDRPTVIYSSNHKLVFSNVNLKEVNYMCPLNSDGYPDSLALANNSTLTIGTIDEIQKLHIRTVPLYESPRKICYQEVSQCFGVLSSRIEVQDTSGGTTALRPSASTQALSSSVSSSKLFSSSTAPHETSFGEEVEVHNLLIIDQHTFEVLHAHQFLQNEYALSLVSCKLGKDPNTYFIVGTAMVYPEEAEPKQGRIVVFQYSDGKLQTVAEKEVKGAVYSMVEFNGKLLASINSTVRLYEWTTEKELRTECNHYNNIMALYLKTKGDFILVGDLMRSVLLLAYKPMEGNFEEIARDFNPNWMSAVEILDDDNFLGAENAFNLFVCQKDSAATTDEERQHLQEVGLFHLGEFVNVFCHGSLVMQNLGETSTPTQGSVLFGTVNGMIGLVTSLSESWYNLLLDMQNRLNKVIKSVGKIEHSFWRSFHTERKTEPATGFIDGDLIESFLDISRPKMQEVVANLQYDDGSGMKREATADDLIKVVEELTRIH

durability of GSPT1 depletion (MV4-11 cells, 6, 12 and 18 hours): transient depletion | decreases in GSPT1 levels (MV4-11 cells, as short as 6 hours post-dosing): dose-dependent decreases
SMILES: CNCCOCCc1ccc(NC(=O)NCc2ccc3c(c2)CN(C2CCC(=O)NC2=O)C3=O)cc1Cl (centres unmarked) [neoDegrader P1, 1-(3-chloro-4-[2-[2-(methylamino)ethoxy]ethyl]phenyl)-3-[[2-(2,6-dioxopiperidin-3-yl)-1-oxo-3H-isoindol-5-yl]methyl]urea]
